Consider one cell line from the supplement of paper PMC10307832.

Common to all, as to assay: relative viability (nuclei count vs DMSO), 5 days (fraction); higher = more cells survive
Compound in assay [1]: C1=CC2=C(C=CC(=C2)C=C3C(=O)NC(=NCC4=CC=CS4)S3)N=C1 [RO-3306] + CC(C)C[C@H](NC(=O)[C@H](Cc1ccccc1)NC(=O)c1cnccn1)B(O)O [Bortezomib] (partner 0.002 µM)
In short, it runs like this:
(§1)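 A single step with final 0.05% Triton X-100, 1% formaldehyde and 1 ug/ml Hoechst fixed the cells and stained nuclei 5 days after treatment. Lung cancer cell lines in 1536-well plates had been treated by pin tool the day after seeding with one drug alone or a fixed anchor-drug dose plus five library-drug doses (not always all listed) in √10 steps, and nuclei were counted on 4× images. Relative viability is the ratio of nuclei in treated wells to nuclei in vehicle wells, taken as the median of duplicate plates.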

Compound in assay [2]: C1=CC2=C(C=CC(=C2)C=C3C(=O)NC(=NCC4=CC=CS4)S3)N=C1 [RO-3306] + CC(=O)Nc1cccc(-n2c(=O)n(C3CC3)c(=O)c3c(Nc4ccc(I)cc4F)n(C)c(=O)c(C)c32)c1 [Trametinib] (partner 0.02 µM)
The procedure, abridged: as §1

Compound in assay [3]: O=S(=O)(c1ccccc1)N(CC(F)(F)F)c1ccc(C(O)(C(F)(F)F)C(F)(F)F)cc1
In short, it runs like this:
(§2)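 Viability was defined as treated-well nuclei divided by vehicle-well nuclei, with the median taken over replicate plates. Cells from lung cancer lines sat overnight at 37 °C in 1536-well plates, received five √10-spaced library-drug doses by pinning on vehicle-anchored plates, and grew 5 days without medium change before one-step fixation, permeabilisation and Hoechst staining, 4× imaging and MetaXpress nuclear counts. Only plates with control CV under 25% and at least one doubling were kept.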

Compound in assay [4]: C1=CC2=C(C=CC(=C2)C=C3C(=O)NC(=NCC4=CC=CS4)S3)N=C1 [RO-3306]
The procedure, abridged: as §2

Compound in assay [5]: COc1cc2c(Oc3ccc(NC(=O)C4(C(=O)Nc5ccc(F)cc5)CC4)cc3F)ccnc2cc1OCCCN1CCOCC1 [Foretinib] (anchor plate)
The note with it: 0.25 µM. In short, it runs like this:
as §2

UMC-11: the relative viability in assay [1] (first compound 0.01 µM) is 1.22; in assay [1] (first compound 0.03162 µM) it was 0.407; in assay [1] (first compound 0.1 µM), 0.64; in assay [1] (first compound 0.3162 µM), 0.689; in assay [1] (first compound 1 µM), 0.538; in assay [2] (first compound 0.01 µM), 0.734. Besides, the relative viability in assay [2] (first compound 0.03162 µM) came out at 0.679; in assay [2] (first compound 0.1 µM), 0.641; in assay [2] (first compound 0.3162 µM), 0.793; in assay [2] (first compound 1 µM), 0.531; in assay [3] (0.8 µM), 1.06; in assay [3] (2.53 µM), 0.985. For the same cell line, the relative viability in assay [3] (8 µM) was 1.11; in assay [4] (0.01 µM) it was 1.09; in assay [4] (0.03162 µM), 0.855; in assay [4] (0.1 µM), 0.969; in assay [4] (0.3162 µM), 1.05; in assay [4] (1 µM) it was 0.828. Besides, the relative viability in assay [5] was determined as 1.03.
